Laboratory results reported in patent publication US8232253B2, “Treatment of lung cancer” (Ramot at Tel-Aviv University Ltd., priority 2006, dated 2012).

Key:
A549 cells [1] = assay: Drug combination experiments, live cell counting; type: cell-based, human; settings: 4 h
Experimental: In drug combination experiments, cells were grown for 2 days in the absence or in the presence of 40 μM FTS and were then treated for 4 h with gemcitabine (100 or 200 nM), cisplatin (50 or 100 nM), doxorubicin (50 or 100 nM), or paclitaxel (2.5 or 5 nM). Live cells were counted after a further 3 days of incubation with or without FTS. Experiments were performed twice in quadruplicate. To determine whether A549 cells were resistant to apoptosis, an experiment to examine the survival of human lung cancer A549 cells after exposure to a chemotherapeutic agent in the presence of FTS was performed. Thus, to determine whether treatment with FTS can increase the sensitivity of A549 cells to cytotoxic drugs, A549 cells were incubated for 48 h with DMSO (control) or with 40 μM FTS, then for 4 h with gemcitabine, cisplatin, doxorubicin, or paclitaxel at the indicated concentrations. The cells were then washed and incubated for a further 72 h with DMSO or with 40 μM FTS. Live cells were collected and counted. The numbers of cells in the drug-treated cultures, expressed as percentages of the numbers in the vehicle-treated control, are shown in FIGS. 13A-13D. Values are means±SD. *P<0.05, **P<0.01, compared to vehicle-treated control.

A549 cells [2] = assay: A549-cell-implanted nude mouse model, tumor growth; type: in vivo, nude mice; settings: gemcitabine alone 36 mg/kg i.p. every 4 days (FIG. 14D)
Experimental: Nude mice (6 weeks old) were housed in barrier facilities on a 12-h light/dark cycle. Food and water were supplied ad libitum. On day zero, A549 or HTB-58 cells (5×10^6 cells in 0.1 ml PBS) were implanted subcutaneously (s.c.) just above the right femoral joint. After 5 or 11 days the mice were separated randomly into control groups that had received only the vehicle and FTS-treated groups. Daily FTS treatments were administered either intraperitoneally (i.p.) or orally. Tumor volumes or weights were determined as described in Barkan, B., Starinsky, S., Friedman, E., Stein, R., Kloog, Y., Clin Cancer Res 12:5533-42 (2006). Gemcitabine treatment (36 mg/kg, i.p.) was administered every 4 days.
To determine whether FTS inhibited tumor growth in vivo, experiments were conducted using a nude mouse model. The lung cancer cells were implanted s.c. above the right femoral joint and the mice were then treated with FTS. In a first experiment, the effect of i.p. administration of FTS on tumor growth in A549 cells was assessed. Treatment was started 5 days after cell implantation, by which time the tumors were palpable. Tumor volumes were determined 24 days after implantation in two groups of mice (n=8) that had received daily i.p. administration of either the vehicle (control) or 10 mg/kg FTS.
In an additional set of experiments, the A549-cell-implanted nude mouse model was used to examine the effect of orally administered FTS on tumor growth. First, cells were implanted as described above and daily oral treatment with FTS (50 mg/kg; n=6) or vehicle (n=5) was started either 11 days (FIG. 14C) or 6 days (FIG. 14D) after implantation. […] Next, the effects of orally administered FTS, alone or in combination with gemcitabine, on A549-cell tumor growth was examined (FIG. 14D). Six days after cell implantation, mice were divided into four groups (n=8 per group) and treated orally with vehicle alone (control), FTS alone (60 mg/kg), vehicle and gemcitabine (36 mg/kg, i.p. every 4 days), or FTS and gemcitabine. Treatments with gemcitabine began 1 week after FTS treatment was started.

Compound	reduction in cell numbers (A549 cells [1]; cisplatin alone 50 nM)	reduction in cell numbers (A549 cells [1]; cisplatin alone 100 nM)	reduction in cell numbers (A549 cells [1]; gemcitabine alone 100 nM)	reduction in cell numbers (A549 cells [1]; gemcitabine alone 200 nM)	effect on tumor weight (A549 cells [2])
N.N.[Cl][Pt][Cl] [cisplatin, cis-diamminedichloroplatinum(II)]	11±11%	30±12.9%			
Cl.Nc1ccn([C@@H]2O[C@H](CO)[C@@H](O)C2(F)F)c(=O)n1 [gemcitabine, 2′-deoxy-2′,2′-difluorocytidine monohydrochloride]			< 11%	< 11%	significant reduction in tumor weight
